Measured values taken from US9890185B2, “Urea derivatives useful as kinase inhibitors” (Respivert Limited, priority 2013, dated 2018).

What was measured:
PBMCs [1] = assay: IL-2 release in CD3/CD28 stimulated PBMC cells (assay c); assay type: cell-based; conditions: Homo sapiens, read-out: IC50 Values for Inhibition of Cytokine Release, PBMCs IL-2
Method: (§1) PBMCs from healthy subjects are separated from whole blood using a density gradient (Lymphoprep, Axis-Shield Healthcare). Cells are added to a 96 well plate pre-coated with a mixture of CD3/CD28 monoclonal antibodies (0.3 μg/mL eBioscience and 3 μg/mL BD Pharmingen respectively). Compound at the desired concentration is then added to the wells and the plate left for 3 days under normal tissue culture conditions. Supernatants are harvested and IL-2 and IFN gamma release determined by Sandwich ELISA (Duo-set, R&D System). The IC50 is determined from the dose response curve.

PBMCs [2] = assay: IFN gamma release in CD3/CD28 stimulated PBMC cells (assay c); assay type: cell-based; conditions: Homo sapiens, read-out: IC50 Values for Inhibition of Cytokine Release, PBMCs IFNγ
Method: as §1

PBMCs [3] = assay: LPS-induced IL-8 release in PBMC cells (assay b); assay type: cell-based, human; conditions: Homo sapiens, PBMC; LPS-stimulated PBMCs; read-out: IC50 Values for Inhibition of Cytokine Release, PBMCs IL-8
Summary of the method: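 Human PBMCs from healthy donors, isolated by density gradient, were pretreated with compound for 2 h and then stimulated with 1 ng/mL LPS (E. coli 0111:B4) for 24 h at 37° C, 5% CO2. Supernatant IL-8 and TNFα were measured by sandwich ELISA, and IC50 was taken from the dose-response curve.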

GSK 3α = GSK 3α (Homo sapiens (Human), UniProt P49840); assay: GSK 3α enzyme inhibition (FRET, Z-LYTE, Method 2); assay type: biochemical; conditions: read-out: IC50 Values for Enzyme Inhibition, GSK3α
Sequence of GSK 3α (P49840 whole entry): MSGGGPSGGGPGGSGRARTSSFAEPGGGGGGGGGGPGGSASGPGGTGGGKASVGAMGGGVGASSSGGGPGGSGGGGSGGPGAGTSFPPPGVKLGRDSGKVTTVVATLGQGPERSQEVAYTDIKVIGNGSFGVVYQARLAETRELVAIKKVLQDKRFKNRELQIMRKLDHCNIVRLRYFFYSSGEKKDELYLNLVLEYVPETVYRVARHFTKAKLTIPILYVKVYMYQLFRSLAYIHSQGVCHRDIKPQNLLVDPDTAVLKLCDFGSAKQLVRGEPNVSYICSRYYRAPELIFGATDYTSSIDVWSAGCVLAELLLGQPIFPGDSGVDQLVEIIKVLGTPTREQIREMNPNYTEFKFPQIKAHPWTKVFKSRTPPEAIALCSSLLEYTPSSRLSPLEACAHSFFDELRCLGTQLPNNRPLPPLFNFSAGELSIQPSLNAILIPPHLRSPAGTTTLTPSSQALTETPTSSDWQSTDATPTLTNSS
Summary of the method: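 Human GSK3α (500 ng/mL) preincubated with compound (4, 0.4, 0.04 or 0.004 μg/mL) at RT for 2 h (Method 1) or 105 min (Method 2). Then FRET peptide (8 μM) and ATP (40 μM) added for 1 h, followed by protease development for 1 h. IC50 from the coumarin/fluorescein emission ratio relative to uninhibited control.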

c-Src = c-Src (Homo sapiens (Human), UniProt P12931); assay: c-Src enzyme inhibition (FRET, Z-LYTE); assay type: biochemical
Sequence of c-Src (P12931 whole entry, looked up): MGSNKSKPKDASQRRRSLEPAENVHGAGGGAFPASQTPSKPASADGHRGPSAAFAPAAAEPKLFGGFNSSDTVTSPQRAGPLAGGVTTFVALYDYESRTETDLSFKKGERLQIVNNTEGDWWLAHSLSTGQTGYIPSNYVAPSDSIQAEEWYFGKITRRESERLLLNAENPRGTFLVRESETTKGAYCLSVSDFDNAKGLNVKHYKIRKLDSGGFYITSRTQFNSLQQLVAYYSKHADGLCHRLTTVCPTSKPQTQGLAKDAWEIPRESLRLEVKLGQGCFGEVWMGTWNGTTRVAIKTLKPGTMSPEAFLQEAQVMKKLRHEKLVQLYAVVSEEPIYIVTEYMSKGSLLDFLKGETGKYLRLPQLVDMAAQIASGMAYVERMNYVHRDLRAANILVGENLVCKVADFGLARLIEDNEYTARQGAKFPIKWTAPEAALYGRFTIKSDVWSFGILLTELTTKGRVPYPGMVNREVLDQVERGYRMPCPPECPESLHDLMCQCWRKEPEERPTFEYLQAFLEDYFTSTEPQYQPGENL
Summary of the method: (§2)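 Enzyme (c-Src 3000 ng/mL, Syk 2000 ng/mL, as added solutions) was preincubated with compound for 2 hr at RT, then FRET peptide and ATP (added solution 800 μM for c-Src, 60 μM for Syk) for 1 hr. Protease development 1 hr; coumarin/fluorescein emission ratio gave % inhibition, IC50 from concentration-response.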

d-U937 cells = assay: Accumulation of β catenin in d-U937 cells (assay m); assay type: cell-based, human; conditions: percentage relative to Reference Compound at 1 μg/mL
Summary of the method: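 PMA-differentiated (100 ng/mL, 48–72 hr) human U937 macrophage-type cells treated with test compound or vehicle for 18 hr. β-catenin measured by in-cell ELISA (anti-β-catenin, HRP secondary, TMB, OD450–655). Signal corrected for cell number by dividing by crystal violet OD595.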

Syk = Syk (Homo sapiens (Human), UniProt P43405); assay: Syk enzyme inhibition (FRET, Z-LYTE); assay type: biochemical
Summary of the method: as §2

PBMCs [4] = assay: Cell mitosis assay in PBMCs (assay g); assay type: cell-based; conditions: Homo sapiens, PBMC, test compound 5 μg/mL
Method: Peripheral blood mononucleocytes (PBMCs) from healthy subjects are separated from whole blood (Quintiles, London, UK) using a density gradient (Histopaque®-1077, Sigma-Aldrich, Poole, UK). The PBMCs (3 million cells per sample) are subsequently treated with 2% PHA (phytohaemagglutinin, Sigma-Aldrich, Poole, UK) for 48 hr, followed by a 20 hr exposure to varying concentrations of test compounds. At 2 hr before collection, PBMCs are treated with demecolcine (0.1 μg/mL; Invitrogen, Paisley, UK) to arrest cells in metaphase. To observe mitotic cells, PBMCs are permeabilised and fixed by adding Intraprep (50 μL; Beckman Coulter, France), and stained with anti-phospho-histone 3 (0.26 ng/L; #9701; Cell Signalling, Danvers, Mass.) and propidium iodide (1 mg/mL; Sigma-Aldrich, Poole, UK) as previously described (Muehlbauer P. A. and Schuler M. J., Mutation Research, 2003, 537:117-130). Fluorescence is observed using an ATTUNE flow cytometer (Invitrogen, Paisley, UK), gating for lymphocytes. The percentage inhibition of mitosis is calculated for each treatment relative to vehicle (0.5% DMSO) treatment.

[5] = target: p38 MAPKα isoform (MAPK14) (Homo sapiens (Human), UniProt Q16539); assay: p38 MAPKα enzyme inhibition (FRET, Z-LYTE, Method 2); assay type: biochemical
Sequence of p38 MAPKα isoform (MAPK14) (Q16539 whole entry, canonical isoform): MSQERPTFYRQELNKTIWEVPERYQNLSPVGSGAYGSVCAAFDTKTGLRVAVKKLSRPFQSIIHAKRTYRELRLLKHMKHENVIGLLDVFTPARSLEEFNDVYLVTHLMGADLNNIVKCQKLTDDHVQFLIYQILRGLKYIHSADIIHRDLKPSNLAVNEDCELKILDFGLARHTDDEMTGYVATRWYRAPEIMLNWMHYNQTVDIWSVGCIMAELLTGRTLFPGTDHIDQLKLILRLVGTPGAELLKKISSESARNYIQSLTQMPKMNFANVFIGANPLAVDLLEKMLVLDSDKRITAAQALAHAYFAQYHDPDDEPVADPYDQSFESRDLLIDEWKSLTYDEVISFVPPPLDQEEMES
Summary of the method: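 Z-LYTE FRET: p38 MAPKα (80 ng/mL for Method 1, 200 ng/mL for Method 2, pre-dilution) preincubated 2 hr RT with compound (4–0.004 μg/mL solutions), activity read via MAPKAP-K2 phosphorylation after 1 hr RT and 1 hr protease development. Coumarin/fluorescein ratio gives phosphorylation; % inhibition versus uninhibited control, IC50 from concentration-response curve.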

IC50 (GSK 3α) [nM] | IC50 (c-Src) [nM] | IC50 (Syk) [nM] | IC50 [5] [nM] | Structure (SMILES) | IC50 (PBMCs [1]) [nM] | IC50 (PBMCs [2]) [nM] | IC50 (PBMCs [3]) [nM] | % β-catenin induction (d-U937 cells; test compound 1 μg/mL) [%] | % β-catenin induction (d-U937 cells; test compound 5 μg/mL) [%] | % β-catenin induction (d-U937 cells; test compound 10 μg/mL) [%] | inhibition at 5 µg/mL (PBMCs [4]) [%]
192 | 46 | 114 |  | COc1c(NC(=O)Nc2ccc(Oc3ccnc(Nc4cnccn4)c3)c3ccccc23)cc(C(C)(C)C)cc1P(C)(C)=O [15(aa), 1-(5-(tert-butyl)-3-(dimethylphosphoryl)-2-methoxyphenyl)-3-(4-((2-(pyrazin-2-ylamino)pyridin-4-yl)oxy)naphthalen-1-yl)urea] | 58.6 | 14.7 | 0.8 | 50.5 | 58.5 | 49.5 | 98.1
1010 | 44 | 249 |  | COc1cccc(Nc2cc(Oc3ccc(NC(=O)Nc4cc(C(C)(C)C)cc(CC(N)=O)c4OC)c(Cl)c3Cl)ccn2)c1 [38(af), 2-(5-(tert-Butyl)-3-(3-(2,3-dichloro-4-((2-((3-methoxyphenyl)amino)pyridin-4-yl)oxy)phenyl)ureido)-2-methoxyphenyl)acetamide] | 63.3 | 4.5 | 2.6 |  |  |  | 89.3
885 |  |  |  | COc1cc(Nc2cc(Oc3ccc(NC(=O)Nc4cc(C(C)(C)C)cc(CC(N)=O)c4OC)c4ccccc34)ccn2)cc(S(N)(=O)=O)c1 [38(ai), 2-(5-(tert-Butyl)-2-methoxy-3-(3-(4-((2-((3-methoxy-5-sulfamoylphenyl)amino)pyridin-4-yl)oxy)naphthalen-1-yl)ureido)phenyl)acetamide] | 91.7 | 11.1 | 1.6 |  |  |  | 67.6
3270 |  |  |  | COc1cc(Nc2cc(Oc3ccc(NC(=O)Nc4cc(C(C)(C)C)cc(P(C)(C)=O)c4OC)c4ccccc34)ccn2)ccc1C(=O)NCCN1CCOCC1 [38(ao), 4-((4-((4-(3-(5-(tert-Butyl)-3-(dimethylphosphoryl)-2-methoxyphenyl)ureido)naphthalen-1-yl)oxy)pyridin-2-yl)amino)-2-methoxy-N-(2-morpholinoethyl)benzamide] | 219 | 15.7 | 2.7 |  |  |  | 78
839 |  |  |  | COc1cc(Nc2cc(Oc3ccc(NC(=O)Nc4cc(C(C)(C)C)cc(CNC(C)=O)c4OC)c4ccccc34)ccn2)cc(C(=O)NCCN2CCOCC2)c1 [38(t), 3-((4-((4-(3-(3-(Acetamidomethyl)-5-(tert-butyl)-2-methoxyphenyl)ureido)naphthalen-1-yl)oxy)pyridin-2-yl)amino)-5-methoxy-N-(2-morpholinoethyl)benzamide] | 288 | 7.4 | 0.7 |  |  |  | 77.3
1310 | 15 | 69 | 218 | COc1cc(Nc2nccc(Oc3ccc(NC(=O)Nc4cc(C(C)(C)C)cc(P(C)(C)=O)c4OC)c4ccccc34)n2)cc(OC)c1 [Example 18, 1-(5-(tert-Butyl)-3-(dimethylphosphoryl)-2-methoxyphenyl)-3-(4-((2-((3,5-dimethoxyphenyl)-amino)pyrimidin-4-yl)oxy)naphthalen-1-yl)urea] | 19.4 | 8.2 | 2.1 | 6.5 | 35.5 | 39.0 | 
3270 | 40 | 799 |  | COc1c(CNC(C)=O)cc(C(C)(C)C)cc1NC(=O)Nc1ccc(Oc2ccnc(Nc3cc(C#N)cc(OCCN4CCOCC4)c3)c2)c2ccccc12 [Example 50, N-(5-(tert-Butyl)-3-(3-(4-((2-((3-cyano-5-(2-morpholinoethoxy)phenyl)amino)pyridin-4-yl)oxy)naphthalen-1-yl)ureido)-2-methoxybenzyl)acetamide] | 30.1 | 0.9 | 1.2 |  |  |  | 57.7
